We go through 13 molecules from PubChem BioAssay (NCI).

Test systems include HOP-62 NSCLC; IGROV1 ovarian; NCI/ADR-RES ovarian; PC-3 prostate; NCI-H226 lung; KM12 colon; SK-MEL-2 melanoma; MOLT-4 leukemia; SK-OV-3 ovarian; BT-549 breast.
What all share (assay): NCI tumour cell line growth inhibition, 48 h

Each structure is given as a SMILES string.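 Five concentrations, 48 hours, 96-well plates. Here, GI50 denotes the concentration required for 50% inhibition of growth. TGI is the concentration that stops growth completely.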 Bounds are passed on as bounds.

As for `COc1ccc(/C=C/c2ccnc3ccccc23)cc1`, the TGI in the assay on HOP-62 NSCLC was 35.9 µM; in the assay with IGROV1 ovarian, 32.5 µM; in the assay with NCI/ADR-RES ovarian it was 33.6 µM; in the assay with PC-3 prostate it was 39.7 µM; in the assay on NCI-H226 lung, 38.2 µM; in the assay on KM12 colon, 30.1 µM. The TGI in the assay with SK-MEL-2 melanoma was 38.4 µM; in the assay with MOLT-4 leukemia it was 34 µM; in the assay with SK-OV-3 ovarian, 33.5 µM.

With `C/C(=C\CCc1ccsc1)CC/C=C(\C)CCCN1CCN(CCO)CC1`, the GI50 in the assay with HOP-62 NSCLC is 2.6 µM; in the assay on IGROV1 ovarian it was 4.68 µM; in the assay with NCI/ADR-RES ovarian it was 3.48 µM; with BT-549 breast, 2.78 µM; in the assay with NCI-H226 lung it was 5.68 µM; with KM12 colon it was 2.38 µM. Moreover, the GI50 in the assay on MOLT-4 leukemia was 2.48 µM; with SK-OV-3 ovarian, 7.58 µM. Besides, the TGI with HOP-62 NSCLC was 6.4 µM; in the assay on IGROV1 ovarian it was 18.9 µM; in the assay on NCI/ADR-RES ovarian, 13.5 µM; in the assay with BT-549 breast, 10.9 µM; in the assay with NCI-H226 lung it was 24.3 µM; in the assay on KM12 colon, 5.66 µM. The TGI in the assay with MOLT-4 leukemia worked out at 6.29 µM; in the assay on SK-OV-3 ovarian, 21 µM.

`Cc1cc(C(=O)N2CCN(C)CC2)c2c(=O)n(-c3ccccc3)c(=O)n(CC(O)CN3CCN(c4ncccn4)CC3)c2n1` (stereo unspecified): the GI50 in the assay on HOP-62 NSCLC, with IGROV1 ovarian, in the assay with NCI/ADR-RES ovarian, with NCI-H226 lung, with KM12 colon and with SK-MEL-2 melanoma was above 100 µM in each case. The GI50 in the assay on MOLT-4 leukemia and with SK-OV-3 ovarian was above 100 µM throughout. Also, the TGI in the assay on HOP-62 NSCLC, with IGROV1 ovarian, with NCI/ADR-RES ovarian, in the assay with NCI-H226 lung, in the assay on KM12 colon and in the assay on SK-MEL-2 melanoma was above 100 µM in each case. Further, the TGI with MOLT-4 leukemia and in the assay on SK-OV-3 ovarian was above 100 µM in each case.

In the case of `CC(C)(C)C1CCP(=O)(c2ccccc2)CC1` (stereo unspecified), the TGI in the assay with HOP-62 NSCLC, in the assay with IGROV1 ovarian, in the assay with NCI-H226 lung, in the assay with KM12 colon, in the assay on SK-MEL-2 melanoma and in the assay on MOLT-4 leukemia was above 100 µM in each case. The same molecule had a TGI in the assay with SK-OV-3 ovarian above 100 µM.

In the case of `Cc1ccc(C)c(NC(=O)C(=O)CC(=O)c2cccc3ccccc23)c1`, the TGI in the assay with HOP-62 NSCLC, in the assay with IGROV1 ovarian, in the assay with NCI-H226 lung, with KM12 colon, in the assay on SK-MEL-2 melanoma and in the assay with MOLT-4 leukemia was above 100 µM each time. Moreover, the TGI with SK-OV-3 ovarian is above 100 µM.

Take `O=C(N/N=C/c1ccncc1)c1ccc(C(F)(F)F)nc1Nc1cccc(C(F)(F)F)c1`: the GI50 in the assay on HOP-62 NSCLC was 2 µM; in the assay with IGROV1 ovarian, 1.41 µM; with NCI/ADR-RES ovarian, 2.67 µM; in the assay on BT-549 breast, 0.613 µM; in the assay with NCI-H226 lung, 2.65 µM; in the assay on KM12 colon it was 3.23 µM. Further, the GI50 is 2.53 µM with MOLT-4 leukemia and 2.13 µM with SK-OV-3 ovarian. The TGI turned out to be 7.29 µM in the assay with HOP-62 NSCLC; 4.26 µM in the assay on IGROV1 ovarian; 9.22 µM with NCI/ADR-RES ovarian; 3.59 µM in the assay on BT-549 breast; 11 µM in the assay on NCI-H226 lung; 12.4 µM with KM12 colon. Besides, the TGI in the assay with MOLT-4 leukemia was determined as 9.1 µM; with SK-OV-3 ovarian it was 6.67 µM.

Regarding `C=C(CS(=O)(=O)c1ccccc1)C(=O)OCC`, the TGI was determined as 38.8 µM with IGROV1 ovarian; 58.1 µM in the assay with NCI-H226 lung; 32.6 µM in the assay with KM12 colon; 35 µM with SK-MEL-2 melanoma; 17.8 µM in the assay on MOLT-4 leukemia; 28 µM in the assay with SK-OV-3 ovarian.

Turning to `CN(C(=O)C12C3C4C1C1C2C3C41C(=O)N(C)C(C)(C)C)C(C)(C)C` (stereo unspecified), the TGI in the assay with HOP-62 NSCLC, in the assay on IGROV1 ovarian, in the assay on MOLT-4 leukemia and in the assay with SK-OV-3 ovarian was above 50 µM in each case.

With `NC(=O)c1ccccc1NC(=O)C(=O)Nc1n[nH]c(N)n1`, the TGI with HOP-62 NSCLC, in the assay on IGROV1 ovarian, in the assay on NCI-H226 lung, in the assay with KM12 colon, in the assay with SK-MEL-2 melanoma and in the assay on MOLT-4 leukemia was above 100 µM in each case. This molecule also came in with a TGI in the assay on SK-OV-3 ovarian above 100 µM.

`CCN1CCN(CC(=O)Nc2nc3ccc(NCc4ccc(C)cc4)cc3s2)CC1`: the GI50 in the assay on HOP-62 NSCLC is 2.02 µM; in the assay with IGROV1 ovarian it was 6.14 µM; with NCI/ADR-RES ovarian, 5.98 µM; with BT-549 breast it was 6.45 µM; in the assay with NCI-H226 lung, 7.77 µM; with KM12 colon, 5.67 µM. In addition, the GI50 is 5.53 µM with SK-MEL-2 melanoma, 1.59 µM in the assay with MOLT-4 leukemia and 4.12 µM in the assay with SK-OV-3 ovarian. The TGI worked out at 8.03 µM in the assay with HOP-62 NSCLC; 14.1 µM in the assay on IGROV1 ovarian; 21.6 µM in the assay with NCI/ADR-RES ovarian; 19.3 µM with BT-549 breast; 18.8 µM with NCI-H226 lung; 13.8 µM in the assay with KM12 colon. The TGI with SK-MEL-2 melanoma is 12.8 µM; with MOLT-4 leukemia, 5.99 µM; in the assay with SK-OV-3 ovarian, 12.4 µM.

With `Cc1ccc(S(=O)(=O)Nc2cccc(C)c2C)cc1`, the TGI in the assay on HOP-62 NSCLC, with IGROV1 ovarian, with NCI-H226 lung, in the assay with KM12 colon, in the assay with MOLT-4 leukemia and in the assay with SK-OV-3 ovarian was above 100 µM throughout.

As to `O=S1c2ccccc2N=C(c2ccc3ccccc3c2)CC1c1ccccc1F` (stereo unspecified), the TGI in the assay on HOP-62 NSCLC, with IGROV1 ovarian, in the assay with NCI-H226 lung, with KM12 colon, with SK-MEL-2 melanoma and in the assay with MOLT-4 leukemia was above 100 µM each time. In the assay with SK-OV-3 ovarian, the TGI was above 100 µM.

Regarding `COc1cc(-c2ccccc2)c(OC)cc1CCl`, the TGI in the assay on HOP-62 NSCLC, in the assay with IGROV1 ovarian, in the assay on NCI-H226 lung, in the assay with KM12 colon, with SK-MEL-2 melanoma and in the assay with MOLT-4 leukemia was above 100 µM each time. In the assay with SK-OV-3 ovarian, this molecule gave a TGI above 100 µM.
